In brackets after ≈: the same amount, converted by molar mass.
What was measured:
IL-6 = assay: P. acnes-induced IL-6 release in THP-1 cells (ELISA); assay type: cell-based; conditions: 25 μg/ml, THP-1 cells, 100% = P. acnes induced cells
IL-1β = assay: P. acnes-induced IL-1β release in THP-1 cells (ELISA); assay type: cell-based; conditions: 25 μg/ml, 100% = P. acnes induced cells
Experimental: Method: Preparation of Stimulant for Inflammation: P. acnes culture suspension was prepared in PBS and the cell number in the suspension was adjusted to approximately 5×10^8 CFU/ml by measuring the cell density using a Densimat. The bacterial suspension was then heat killed at 80° C. for 30 min and stored at −80° C. until further use.
Cells were seeded in a 96-well format (2×10^5 THP-1 cells per well) in media containing 10% FBS. The cells were stimulated to induce inflammatory cytokines using 3 McFarland equivalent heat-killed P. acnes. Cells in control wells were treated with PBS. One hour after induction with P. acnes, test agents were added to the induced cells at appropriate concentrations to be tested (compound 91 at 25 μg/ml). The plates were incubated at 37° C. for 24 hours. After 24 h, the plates were centrifuged to pellet the cells and the supernatants were collected. The cell culture supernatants thus obtained were analyzed for levels of cytokines (IL-1α, IL-1β, IL-6 and IL-8) by ELISA using R&D Systems kits for individual cytokines following the manufacturer's instructions.

S. aureus MTCC 6908 = assay: MIC by micro broth dilution, laboratory S. aureus strain; assay type: cell-based, Staphylococcus aureus; conditions: Staphylococcus aureus, MTCC6908; Table 6; read-out: MIC Susceptible S. aureus (6908) strain
Experimental: The plates were incubated at 37° C. for 48 h under anaerobic condition for P. acnes and 37° C. for 24 h for S. aureus The plates were read under Bio-Rad plate reader at 595 nm for optical density to generate the dose-response curves. The MIC of the test compound was recorded by addition of Alamar blue dye.
S. aureus MTCC 6908 were grown in Tryptone Soya Agar (TSA) at 37° C. for 24 hours. […] Plates were incubated at 37° C. for 24 hours. […] (2) Zone of Inhibition (ZOI): S. aureus MTCC 6908 were grown in Tryptone Soya Agar (TSA) at 37° C. for 24 hours. BHA plates are spreaded with 100 μl of 0.5 McFarland standard equal bacterial suspension. Test samples (drugs/formulations) were dissolved in water/solvent based on the solubility. Sterile disc (6 mm) were loaded with 10 μl of test samples (of various concentration of drug), and were placed above the spreaded plates. Plates were incubated at 37 C for 24 h, followed by ZOI measurement. (3) Time Kill Assay: 0.5 McFarland standard equal S. aureus culture was prepared in sterile water. Besifloxacin gels were diluted in Tryptone Soya broth (TSB) to get final concentration of 25 μg/ml. Then 900 μl of S. aureus 0.5 McFarland standard equal culture and 100 μl of diluted Besifloxacin gel was mixed to obtain final Besifloxacin concentration, 2.5 μl g/ml. Total reaction mixture (1 ml) was incubated at 37° C. in a tube rotator. After 2 and 6 h exposure, bacterial suspension was placed on Tryptone soya agar plate and incubated at 37° C. for 24 h.
Inoculated plates were incubated at 37° C. for 24 hours.

IL-8 = assay: P. acnes-induced IL-8 release in THP-1 cells (ELISA); assay type: cell-based; conditions: 25 μg/ml
P. acnes CCARM 9010 = assay: MIC by micro broth dilution (Alamar blue), clindamycin-resistant/nonresponsive P. acnes; assay type: cell-based, Propionibacterium acnes; conditions: for Activity / bacterial killing, dose response curve (in words): clindamycin-nonresponsive CCARM 9010
THP-1 cells = assay: Viability of THP-1 cells under treatment; assay type: cell-based; conditions: 25 μg/ml of compound 91

SMILES: Cc1ncc([N+](=O)[O-])n1CC(O)CN1CCN(c2cc3c(cc2F)c(=O)c(C(=O)O)c2n3C(C)S2)CC1 (centres unmarked) [Compound 91, 6-Fluoro-7-{4-[2-hydroxy-3-(2-methyl-5-nitro-imidazol-1-yl)-propyl]-piperazin-1-yl}-1-methyl-4-oxo-4H-2-thia-8b-aza-cyclobuta[a]naphthalene-3-carboxylic acid]
- Percentage reduction in P. acnes induced IL-6 release (IL-6): 56.76%
- Percentage reduction in P. acnes induced IL-6 release (IL-6; listed as compound 91): ~60%
- Percentage reduction in P. acnes induced IL-1β release (IL-1β): 20.49%
- Percentage reduction in P. acnes induced IL-1β release (IL-1β; listed as compound 91): 20-25%
- MIC (S. aureus MTCC 6908): 1.5 µg/mL (≈ 2.82 µM)
- Effect on IL-8 levels (in words) (IL-8; P. acnes-induced THP-1 cells): did not have an effect
- Percentage reduction in P. acnes induced IL-8 release (IL-8; THP-1 cells, 100% = P. acnes induced cells): 14.65%
- MIC (P. acnes CCARM 9010; Cutibacterium acnes, CCARM9010, read-out: MIC Resistant P. acnes (9010) strain): 0.1 µg/mL (≈ 0.188 µM)
- Activity / bacterial killing, dose response curve (in words) (P. acnes CCARM 9010): highly efficacious bacterial killing profile
- Activity / bacterial killing, dose response curve (in words) (P. acnes CCARM 9010; listed as compound 91): lower MIC value and faster bacterial killing profile
- Viability of THP-1 cells (THP-1 cells): 90%
